These results are taken from patent US9145415B2, “Nitrogen-containing heterocyclic compound or salt thereof” (FUJIFILM Corporation, priority 2012, dated 2015).

Where two headings read alike, the source gives them in different places.

In one experiment the test system is MV4-11 cells. Description: Leukemia cell proliferation inhibition test (ATPlite), MV4-11. The note with it: Homo sapiens, read-out: MV4-11 cell proliferation inhibition effect. The experiment is classed as cell-based. In a few lines:
(§1)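 Molm-13 or MV4-11 cells in RPMI with 10% FBS and pen/strep, seeded at 10,000 cells per well, were exposed to serially diluted compound for 72 hours at 37° C, 5% CO2. Total cellular ATP was read by luciferase luminescence. GI50 came from sigmoid fits against the 0.1% DMSO control, in duplicate.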
(In general: ATP-based viability assays read luminescence as a measure of living cells.)

A further experiment relates to Molm-13 cells. Description: Leukemia cell proliferation inhibition test (ATPlite), Molm-13. The format is cell-based. The note with it: Homo sapiens, read-out: MOLM13 cell proliferation inhibition effect. In a few lines:
as §1

The target in experiment [1] is T1, human FLT3 protein (FLT3 (WT)) (Homo sapiens, UniProt P36888).
T1 construct: human FLT3 protein (intracellular region, 564 to 993 aa); GST; purchased Carna Biosciences; host or cells: baculovirus expression system
T1 sequence (P36888 564-993): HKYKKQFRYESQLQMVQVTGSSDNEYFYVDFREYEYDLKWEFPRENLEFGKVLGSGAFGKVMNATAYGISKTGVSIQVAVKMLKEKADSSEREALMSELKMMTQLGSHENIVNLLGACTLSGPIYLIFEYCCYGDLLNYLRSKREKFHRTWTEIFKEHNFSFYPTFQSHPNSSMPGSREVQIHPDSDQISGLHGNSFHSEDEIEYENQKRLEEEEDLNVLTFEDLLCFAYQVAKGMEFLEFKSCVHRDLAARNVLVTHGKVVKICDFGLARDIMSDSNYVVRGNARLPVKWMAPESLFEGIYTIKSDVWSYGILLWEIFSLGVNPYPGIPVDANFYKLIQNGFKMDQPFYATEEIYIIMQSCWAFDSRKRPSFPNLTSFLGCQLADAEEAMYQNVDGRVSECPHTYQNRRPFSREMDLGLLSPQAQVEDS
Briefly: FLT3 inhibition test (FLT3 enzyme inhibition, time-resolved fluorescence of substrate peptide phosphorylation). The experiment is classed as biochemical. The note with it: read-out: FLT3 (WT) enzyme inhibition activity. In short, it runs like this: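 Wild-type human FLT3 (1.2 μg) pre-incubated with compound 15 min at 25° C in 100 mM HEPES pH 7.5, 10 mM MgCl2, 25 mM NaCl, 1 mM DTT. Reaction started with substrate peptide and ATP (final 50 μM), run 30 min at 25° C; phosphorylation read by time-resolved fluorescence.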

[2] abbreviates: MV4-11, 72 h, MV4-11, 72 hours culture, ATPlite, GI50 per method.
[3] abbreviates: MOLM-13, 72 h, Molm-13, 72 hours culture, ATPlite, GI50 per method.
Setting [4] is: GST-fused human FLT3 (564 to 993 aa), ATP 50 μM.

As to `C[C@@H](C(=O)NCCCC#Cc1cnc(Nc2ccc(C#N)cc2)nc1N1CCC(F)(F)C1)N(C)C(=O)/C=C/CN(C)C` [Compound 10-42], the IC50 (with MV4-11 cells (setting [2]); with Molm-13 cells (setting [3]); in experiment [1] (setting [4])) was below 10 nM each time.

For the compound `COc1ccc(Nc2ncc(C#C[C@H]3C[C@@H](NC(=O)[C@H](C)N(C)C(=O)/C=C/CN(C)C)C3)c(NC3CC3)n2)cc1F` (relative stereo) [Compound 15-10, (E)-N—((S)-1-(((1S*,3R*)-3-((4-(Cyclopropylamino)-2-((3-fluoro-4-methoxyphenyl)amino)pyrimidin-5-yl)ethynyl)cyclobutyl)amino)-1-oxopropan-2-yl)-4-(dimethylamino)-N-methyl-2-butenamide], the IC50 (with MV4-11 cells (setting [2]); in the experiment on Molm-13 cells (setting [3]); in experiment [1] (setting [4])) was below 10 nM throughout.

Consider `C[C@@H](C(=O)NCCCC#Cc1cnc(Nc2ccc(F)cc2)nc1N1CCCCC1)N(C)C(=O)/C=C/CN(C)C` [Compound 10-38], for which the IC50 was below 10 nM with MV4-11 cells (setting [2]), 10 to 100 nM in the experiment on Molm-13 cells (setting [3]) and below 10 nM in experiment [1] (setting [4]).

Turning to `CCCNc1nc(Nc2cccc(F)c2)ncc1C#CCCCNC(=O)[C@@H]1C[C@@H](O)CN1C(=O)/C=C/CN(C)C` [Compound 7-66, (2S,4R)-1-((E)-4-(Dimethylamino)-2-butenoyl)-N-(5-(2-((3-fluorophenyl)amino)-4-(propylamino)pyrimidin-5-yl)-4-pentyn-1-yl)-4-hydroxypyrrolidine-2-carboxamide], the IC50 (with MV4-11 cells (setting [2]); in the experiment on Molm-13 cells (setting [3]); in experiment [1] (setting [4])) was below 10 nM in each case.

With `C[C@@H](C(=O)NCCCC#Cc1cnc(Nc2ccc(F)nc2)nc1NCC(F)(F)F)N(C)C(=O)/C=C/CN(C)C` [Compound 10-33], the IC50 (in the experiment on MV4-11 cells (setting [2]); in the experiment on Molm-13 cells (setting [3]); in experiment [1] (setting [4])) was below 10 nM each time.

For the compound `CCCNc1nc(Nc2ccc(C(N)=O)cc2)ncc1C(=O)Nc1cccc(NC(=O)[C@H](C)N(C)C(=O)/C=C/CN(CC)CC)c1` [Compound 4-8, (S,E)-2-((4-Carbamoylphenyl)amino)-N-(3-(2-(4-(diethylamino)-N-methyl-2-butenamido)propanamido)phenyl)-4-(propylamino)pyrimidine-5-carboxamide], the IC50 (with MV4-11 cells (setting [2]); with Molm-13 cells (setting [3]); in experiment [1] (setting [4])) was below 10 nM throughout.

Consider `CCCNc1nc(NCCc2ccncc2)ncc1C(=O)Nc1ccc(C)c(NC(=O)CNC(=O)/C=C/CN(C)C)c1` [Compound 1-8], for which the IC50 in the experiment on MV4-11 cells (setting [2]) is below 10 nM; with Molm-13 cells (setting [3]) it was 10 to 100 nM; in experiment [1] (setting [4]) it was below 10 nM.

Take `CCCOc1nc(Nc2cccc(F)c2)ncc1C#C[C@@H]1CCC[C@H](NC(=O)[C@H](C)N(C)C(=O)/C=C/CN(C)C)C1` [Compound 21-52]: the IC50 in the experiment with MV4-11 cells (MV4-11, MV4-11 cell) was below 10 nM; in the experiment with Molm-13 cells (MOLM-13, MOLM13 cell), below 10 nM; in experiment [1] (FLT3 (WT)), below 10 nM.

For `CCCNc1nc(Nc2ccc(C#N)cc2)ncc1C#CCCCNC(=O)[C@@H]1CC(F)(F)CN1C(=O)/C=C/CN(C)C` [Compound 7-54], the IC50 in the experiment on MV4-11 cells (setting [2]) was below 10 nM; in the experiment with Molm-13 cells (setting [3]) it was below 10 nM; in experiment [1] (setting [4]) it was 10 to 100 nM.

In the case of `CCCNc1nc(Nc2cccc(F)c2)ncc1C#CCCCNC(=O)[C@H](CCC)N(C)C(=O)/C=C/CN(C)C` [Compound 7-18], the IC50 was 10 to 100 nM with MV4-11 cells (setting [2]), 10 to 100 nM with Molm-13 cells (setting [3]) and below 10 nM in experiment [1] (setting [4]).

`COc1ccc(Nc2nc(Nc3cccc(F)c3)ncc2C#CCCCNC(=O)[C@H](C)N(C)C(=O)/C=C/CN(C)C)cn1` [Compound 7-19]: the IC50 (in the experiment with MV4-11 cells (setting [2]); in the experiment with Molm-13 cells (setting [3]); in experiment [1] (setting [4])) was below 10 nM each time.

For `CC#CC(=O)N(C)[C@@H](C)C(=O)Nc1cccc(NC(=O)c2cnc(Nc3ccc(C(N)=O)cc3)nc2NCCC)c1` [Compound 3-11], the IC50 in the experiment on MV4-11 cells (setting [2]) was below 10 nM; in the experiment with Molm-13 cells (setting [3]), 10 to 100 nM; in experiment [1] (setting [4]) it was below 10 nM.

With `CCCNc1nc(Nc2ccc3c(c2)c(N(C)C)nn3C)ncc1C#CCCCNC(=O)[C@H](C)N(C)C(=O)/C=C/CN(C)C` [Compound 22-12], the IC50 with MV4-11 cells (MV4-11, MV4-11 cell) was below 10 nM; with Molm-13 cells (MOLM-13, MOLM13 cell) it was below 10 nM; in experiment [1] (FLT3 (WT)), below 10 nM.

In the case of `CNc1nc(Nc2cccc(F)c2)ncc1C#C[C@H]1C[C@@H](NC(=O)[C@H](C)N(C)C(=O)/C=C/CN(C)C)C1` [Compound 13-13, (E)-4-(Dimethylamino)-N—((S)-1-(((1S,3R)-3-((2-((3-fluorophenyl)amino)-4-(methylamino)pyrimidin-5-yl)ethynyl)cyclobutyl)amino)-1-oxopropan-2-yl)-N-methyl-2-butenamide], the IC50 (in the experiment with MV4-11 cells (setting [2]); with Molm-13 cells (setting [3]); in experiment [1] (setting [4])) was below 10 nM in each case.

Turning to `CCCNc1nc(Nc2cccc(-n3ccnn3)c2)ncc1C#CCCCNC(=O)[C@H](C)N(C)C(=O)/C=C/CN(C)C` [Compound 22-20], the IC50 is below 10 nM in the experiment with MV4-11 cells (MV4-11, MV4-11 cell); below 10 nM in the experiment with Molm-13 cells (MOLM-13, MOLM13 cell); below 10 nM in experiment [1] (FLT3 (WT)).

Take `CCCNc1nc(Nc2cccc(-n3cccn3)c2)ncc1C#CCCCNC(=O)[C@H](C)N(C)C(=O)/C=C/CN(C)C` [Compound 22-18]: the IC50 in the experiment with MV4-11 cells (MV4-11, MV4-11 cell) is below 10 nM; with Molm-13 cells (MOLM-13, MOLM13 cell), below 10 nM; in experiment [1] (FLT3 (WT)), below 10 nM.

Turning to `CCCN(C)c1nc(Nc2ccc(C(=O)NC3CC3)cc2)ncc1C#CCCCNC(=O)[C@H](C)N(C)C(=O)/C=C/CN(C)C` [Compound 9-8], the figures for the IC50 (in the experiment with MV4-11 cells (setting [2]); in the experiment with Molm-13 cells (setting [3]); in experiment [1] (setting [4])) were below 10 nM, 10 to 100 nM and below 10 nM, respectively.

Regarding `C[C@@H](C(=O)N[C@H]1CCC[C@@H](C#Cc2cnc(Nc3ccnc(F)c3)nc2N2CCOCC2)C1)N(C)C(=O)/C=C/CN(C)C` [Compound 14-3], the IC50 (in the experiment with MV4-11 cells (setting [2]); with Molm-13 cells (setting [3]); in experiment [1] (setting [4])) was below 10 nM each time.

Turning to `CNc1nc(Nc2ccc(F)cc2)ncc1C#CCCCNC(=O)[C@H](C)N(C)C(=O)/C=C/CN(C)C` [Compound 21-51], the IC50 in the experiment on MV4-11 cells (MV4-11, MV4-11 cell) was below 10 nM; in the experiment on Molm-13 cells (MOLM-13, MOLM13 cell) it was below 10 nM; in experiment [1] (FLT3 (WT)), below 10 nM.

Take `COc1ccc(Nc2ncc(C#CCCCNC(=O)[C@H](C)N(C)C(=O)/C=C/CN(C)C)c(NCCCF)n2)cc1F` [Compound 7-56, (S,E)-4-(Dimethylamino)-N-(1-((5-(2-((3-fluoro-4-methoxyphenyl)amino)-4-((3-fluoropropyl)amino)pyrimidin-5-yl)-4-pentyn-1-yl)amino)-1-oxopropan-2-yl)-N-methyl-2-butenamide]: the IC50 (in the experiment on MV4-11 cells (setting [2]); in the experiment on Molm-13 cells (setting [3]); in experiment [1] (setting [4])) was below 10 nM in each case.

As for `CCCNc1ncc(C#CCCCNC(=O)[C@H](C)N(C)C(=O)/C=C/CN(C)C)c(Nc2ccc(OC)cc2)n1` [Compound 21-38], the IC50 in the experiment with MV4-11 cells (MV4-11, MV4-11 cell) was below 10 nM; with Molm-13 cells (MOLM-13, MOLM13 cell) it was below 10 nM; in experiment [1] (FLT3 (WT)), below 10 nM.

Regarding `C[C@@H](C(=O)NCCCC#Cc1cnc(Nc2ccc(F)cc2)nc1N1CCN(C)CC1)N(C)C(=O)/C=C/CN(C)C` [Compound 10-28], the IC50 with MV4-11 cells (setting [2]) is below 10 nM; with Molm-13 cells (setting [3]), 10 to 100 nM; in experiment [1] (setting [4]), below 10 nM.

As for `COCCCNc1nc(Nc2ccc3[nH]ncc3c2)ncc1C#CCCCNC(=O)[C@H](C)N(C)C(=O)/C=C/CN(C)C` [Compound 10-62], the IC50 (in the experiment on MV4-11 cells (setting [2]); in the experiment with Molm-13 cells (setting [3]); in experiment [1] (setting [4])) was below 10 nM in each case.

As to `CCCNc1nc(Nc2cccc(F)c2)ncc1C#CCCCNC(=O)[C@H](CC)N(C)C(=O)/C=C/CN(C)C` [Compound 7-17], the IC50 (with MV4-11 cells (setting [2]); in the experiment on Molm-13 cells (setting [3]); in experiment [1] (setting [4])) was below 10 nM throughout.

In the case of `CCCNc1nc(Nc2ccc(C#N)cc2)ncc1C#CCCCNC(=O)CN(CC(C)C)C(=O)/C=C/CN(C)C` [Compound 7-65], the IC50 (with MV4-11 cells (setting [2]); with Molm-13 cells (setting [3]); in experiment [1] (setting [4])) was below 10 nM throughout.

As for `CCCCN(CC(=O)NCCCC#Cc1cnc(Nc2ccc(C#N)cc2)nc1NCCC)C(=O)/C=C/CN(C)C` [Compound 7-70], the IC50 (in the experiment on MV4-11 cells (setting [2]); in the experiment on Molm-13 cells (setting [3]); in experiment [1] (setting [4])) was below 10 nM in each case.

For `C[C@@H](C(=O)N[C@H]1CCC[C@@H](C#Cc2cnc(Nc3ccc(C#N)cc3)nc2NC2CC2)C1)N(C)C(=O)/C=C/CN(C)C` [Compound 7-35], the IC50 (in the experiment on MV4-11 cells (setting [2]); with Molm-13 cells (setting [3]); in experiment [1] (setting [4])) was below 10 nM each time.

For `C=CC(=O)NCC(=O)NCCNC(=O)c1cnc(NCCc2ccncc2)nc1NCCC` [Compound 2-18], the results for the IC50 (in the experiment on MV4-11 cells (setting [2]); in the experiment with Molm-13 cells (setting [3]); in experiment [1] (setting [4])) were above 1000 nM, above 1000 nM and 10 to 100 nM, respectively.
